Consider 13 compounds from PubChem BioAssay AID652282 (Vanderbilt Specialized Chemistry Center, 2013).

pIC50: −log10 of the molar value. Activity calls are given as the source filed them. No rule for the calls is given here.

Broadly, the pIC50 is the IC50 on a negative log10 scale, so that one unit is a factor of ten. The term IC50 denotes the concentration at which inhibition is half-maximal.

The subject of assay [1] is BMP4-induced signaling reporter cell assay. Description: BMP4 signaling inhibitors, SAR follow-up, reporter cells (AID 652282).
Experiment in assay [2]: as above
Conditions: BMP4-induced signaling reporter cell assay; at 10 µM (top of the series).

Turning to `c1cc(N2CCOCC2)ccc1-c1cnc2c(-c3cn[nH]c3)cnn2c1`, in assay [1], the pIC50 is 6.76.

Regarding `c1ccc2c(-c3cnn4cc(-c5ccc(N6CCOCC6)cc5)cnc34)csc2c1`, the pIC50 in assay [1] was 6.56.

As to `COc1ccc(-c2cnc3c(-c4cccc5ncccc45)cnn3c2)cc1`, in assay [1], the pIC50 is 6.82.

For `Clc1cc(-c2cnn3cc(-c4ccc(N5CCNCC5)cc4)cnc23)ccn1`, the pIC50 in assay [1] was 6.57.

Take `Clc1cc(-c2cnn3cc(-c4ccc(N5CCOCC5)cc4)cnc23)ccn1`: in assay [1], the pIC50 is 6.22.

`c1ccc2c(-c3cnn4cc(-c5ccc(N6CCNCC6)cc5)cnc34)csc2c1`: the pIC50 in assay [1] is 6.65.

For the compound `COc1ccc(-c2cnc3c(-c4ccnc5ccsc45)cnn3c2)cc1`, in assay [1], the pIC50 was 5.35.

On to `COc1ccc(-c2cnc3c(-c4ccnc5ncccc45)cnn3c2)cc1`, for which, in assay [1], the pIC50 is 7.42.

Turning to `c1ccc2c(-c3cnn4cc(-c5ccc(N6CCOCC6)cc5)cnc34)ccnc2c1`, the remaining activity % in assay [2] was -11.

For `COc1ccc(-c2cnc3c(-c4ccnc5ccccc45)cnn3c2)cc1`, the remaining activity % in assay [2] is -16.3.

Take `COc1ccc(-c2cnc3c(-c4cncc5ccccc45)cnn3c2)cc1`: in assay [1], the pIC50 was 5.31.

In the case of `COc1ccc(-c2cnc3c(-c4cccc5cccnc45)cnn3c2)cc1`, in assay [1], the IC50 is 6700 nM (inactive).

Take `c1cc(N2CCNCC2)ccc1-c1cnc2c(-c3cn[nH]c3)cnn2c1`: the remaining activity % in assay [2] was -11.7.
